Results: PubChem BioAssay (NCI)
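All cell lines were grown in 96-well plates and treated with compound for 48 hours. TGI: concentration producing complete growth inhibition.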

Assays:
Assay in all cases: DTP human tumour cell line panel, 48 h
[1] = tested on: DLD-1 colon
[2] = tested on: XF 498 CNS
[3] = tested on: RXF-631 renal

SMILES: COc1cc(-c2cccs2)sc1-c1cccs1
- TGI [1]: > 100 µM

SMILES: CCCC/C=C/C=C/C=C/CCCCCCCC(=O)OCC(COC(=O)CCCCCCC/C=C/C1C=CC(CCCC)C(C(=O)O)C1C(=O)O)OC(=O)CCCCCCC/C=C/C=C/C=C/CCCC (stereo not drawn) (tested in a mixture with another compound)
- TGI [1]: 40 µM

SMILES: O=C(Nc1c(O)[nH]c(=S)[nH]c1=O)c1ccccc1
- TGI [1]: > 100 µM

SMILES: O=c1cc(-c2ccc3c(c2)OCO3)[nH]c2cc3c(cc12)OCO3
- TGI [1]: > 100 µM
- TGI [2]: > 100 µM

SMILES: N#Cc1cccc(-n2[nH]c(=O)ccc2=O)c1
- TGI [1]: > 100 µM

SMILES: CC(=O)OCCOCNC(=S)N/N=C/c1ccc([N+](=O)[O-])o1
- TGI [1]: > 100 µM
- TGI [3]: > 100 µM
- TGI [2]: > 100 µM

SMILES: COc1cc(C2C(Cl)C(=O)N2n2cnc3ccccc3c2=O)ccc1O (stereo not drawn)
- TGI [1]: > 100 µM

SMILES: CCn1cnc2c(=S)nc(N)[nH]c21
- TGI [1]: > 100 µM

SMILES: CCOC(=O)/C(=C/c1ccc(OC)cc1)N(CC)CC
- TGI [2]: > 100 µM

SMILES: O=C1C(Br)=C(Br)C(=O)c2ccc(=O)ccc21
- TGI [1]: 46.6 µM
- TGI [3]: 39.7 µM
- TGI [2]: 43.2 µM

SMILES: COc1ccc(C2Oc3cc(OC)c(OC)cc3C2CCl)cc1OC (stereo not drawn)
- TGI [1]: > 100 µM
- TGI [2]: > 100 µM

SMILES: CCNC(=O)c1ccc(C)c(N=NN(C)C)c1
- TGI [1]: > 100 µM
